Counter-ions that a name gives are not always drawn.
Experiments:
Details in all cases: 72 h
Caco-2 [1] = test: cell viability relative to DMSO; higher = less toxic
Calu-3 [2] = test: as above
U2OS [3] = test: as above
Vero E6 [4] = test: as above
Caco-2 [5] = test: relative viability EC50 (midpoint between 100% and the lowest measured viability); higher = less toxic
Calu-3 [6] = test: as above
U2OS [7] = test: as above
Vero E6 [8] = test: as above
Caco-2 [9] = test: drug sensitivity score (DSS) for viability; higher = more toxic; extreme values may be limits of the assay
Calu-3 [10] = test: as above
U2OS [11] = test: as above
Vero E6 [12] = test: as above
HepG2 [13] = test: cell viability relative to DMSO; higher = less toxic
HepG2 [14] = test: drug sensitivity score (DSS) for viability; higher = more toxic; extreme values may be limits of the assay

Row | SMILES | cell viability (Caco-2 [1]; 1 nM) [%] | cell viability (Caco-2 [1]; 10 nM) [%] | cell viability (Caco-2 [1]; 100 nM) [%] | cell viability (Caco-2 [1]; 1000 nM) [%] | cell viability (Caco-2 [1]; 10000 nM) [%] | cell viability (Calu-3 [2]; 1 nM) [%] | cell viability (Calu-3 [2]; 10 nM) [%] | cell viability (Calu-3 [2]; 100 nM) [%] | cell viability (Calu-3 [2]; 1000 nM) [%] | cell viability (Calu-3 [2]; 10000 nM) [%] | cell viability (U2OS [3]; 1 nM) [%] | cell viability (U2OS [3]; 10 nM) [%] | cell viability (U2OS [3]; 100 nM) [%] | cell viability (U2OS [3]; 1000 nM) [%] | cell viability (U2OS [3]; 10000 nM) [%] | cell viability (Vero E6 [4]; 1 nM) [%] | cell viability (Vero E6 [4]; 10 nM) [%] | cell viability (Vero E6 [4]; 100 nM) [%] | cell viability (Vero E6 [4]; 1000 nM) [%] | cell viability (Vero E6 [4]; 10000 nM) [%] | relative viability EC50 (Caco-2 [5]) [µM] | relative viability EC50 (Calu-3 [6]) [µM] | relative viability EC50 (U2OS [7]) [µM] | relative viability EC50 (Vero E6 [8]) [µM] | drug sensitivity score (Caco-2 [9]) | drug sensitivity score (Calu-3 [10]) | drug sensitivity score (U2OS [11]) | drug sensitivity score (Vero E6 [12]) | cell viability (HepG2 [13]; 1 nM) [%] | cell viability (HepG2 [13]; 10 nM) [%] | cell viability (HepG2 [13]; 100 nM) [%] | cell viability (HepG2 [13]; 1000 nM) [%] | cell viability (HepG2 [13]; 10000 nM) [%] | drug sensitivity score (HepG2 [14])
1 | N#Cc1c(O)c2c(-c3ccc(-c4ccccc4O)cc3)csc2[nH]c1=O | 97.8 | 102 | 95.2 | 98.8 | 96.5 | 94.3 | 94.8 | 96.7 | 95.5 | 104 | 103 | 108 | 99.8 | 106 | 99.1 | 105 | 101 | 97.3 | 95.4 | 99 | > 10 | > 10 | > 10 | > 10 | 0 | 0 | 0 | 0 |  |  |  |  |  | 
2 | O=C1NC(=O)c2c1c1c3ccccc3n3c1c1c2c2ccccc2n1C1CCC3O1 | 101 | 96.2 | 92.9 | 76.9 | 80.7 | 104 | 92.6 | 96.4 | 92 | 95.9 | 99.8 | 99.3 | 91.1 | 86.8 | 80 | 98.5 | 94.7 | 95 | 71.7 | 75 | > 10 | > 10 | > 10 |  | 4 | 0 | 1.9 | 5.5 | 100 | 99.9 | 98.8 | 57.8 | 56.5 | 7.8
3 | c1ccc(-c2n[nH]c3c2oc2ccccc23)cc1 | 107 | 99.4 | 104 | 96.8 | 89.7 | 89.6 | 103 | 102 | 105 | 110 | 103 | 102 | 98.5 | 99.6 | 93.8 | 91 | 96.4 | 91.7 | 90.1 | 102 | > 10 | > 10 | > 10 | > 10 | 0 | 0 | 0 | 0 | 104 | 106 | 90.1 | 84 | 74.5 | 2.9
4 | OC[C@H]1O[C@@H](O[C@@H]2[C@@H](CO)OC(O)(CO)[C@H]2O)[C@H](O)[C@@H](O)[C@H]1O (mixture of isomers) [lactulose] | 100 | 98.2 | 101 | 104 | 106 | 107 | 112 | 99.1 | 104 | 101 |  |  |  |  |  | 94.1 | 97.7 | 89.1 | 94.6 | 110 | > 10 | > 10 |  | > 10 | 0 | 0 |  | 0 |  |  |  |  |  | 
5 | OCCCCO [1,4-butanediol] | 98.6 | 112 | 119 | 107 | 102 | 89.2 | 98.4 | 89.4 | 94 | 93.7 | 101 | 108 | 96.8 | 111 | 97.8 | 102 | 102 | 100 | 104 | 93.1 | > 10 | > 10 | > 10 | > 10 | 0 | 0 | 0 | 0 | 90.8 | 97.9 | 95.7 | 105 | 74.4 | 0.7
6 | C[C@@H](N)[C@@H](O)c1ccccc1 [1S,2R-phenylpropanolamine] | 98.5 | 107 | 97.4 | 102 | 110 | 106 | 106 | 98.8 | 102 | 99.7 |  |  |  |  |  | 101 | 101 | 101 | 103 | 97.7 | > 10 | > 10 |  | > 10 | 0 | 0 |  | 0 |  |  |  |  |  | 
7 | CCS(=O)(=O)N(Cc1cccnc1)c1cccc(-c2ccc(C#N)cc2)c1 [CBiPES] | 100 | 99.2 | 98.1 | 92.6 | 76.4 | 101 | 96.5 | 97.1 | 96.8 | 112 | 104 | 97.2 | 103 | 98.1 | 94.6 | 103 | 96.7 | 101 | 96.4 | 85.9 | > 10 | > 10 | > 10 | > 10 | 1.6 | 0 | 0 | 0.5 | 98.5 | 96.3 | 93.7 | 105 | 56.7 | 1.9
8 | CC(C)NC[C@@H](C(=O)N1CCN(c2ncnc3c2[C@H](C)C[C@H]3O)CC1)c1ccc(Cl)cc1 [GDC-0068] | 107 | 107 | 96 | 83.2 | 69.1 | 101 | 108 | 89.9 | 80.8 | 56.7 | 105 | 100 | 101 | 96.8 | 87.2 | 105 | 102 | 100 | 101 | 93.2 |  |  | > 10 | > 10 | 3 | 4.3 | 0.3 | 0 | 109 | 115 | 108 | 98.9 | 71.4 | 1.3
9 | CNC1CC(N)C(O)C(OC2OC(CO)C(O)C3OC4(OC(C(N)CO)C(O)C(O)C4O)OC23)C1O (stereo not drawn) [Hygromycin B] | 97.2 | 105 | 107 | 108 | 95.9 | 95.7 | 93.5 | 92.9 | 97.5 | 89.8 | 104 | 97.8 | 99 | 103 | 93.9 | 95.9 | 93.4 | 95.4 | 91.5 | 104 | > 10 | > 10 | > 10 | > 10 | 0 | 0 | 0 | 0 |  |  |  |  |  | 
10 | CN1c2cc3c(cc2N=C(c2ccc(C(=O)O)cc2)c2ccccc21)C(C)(C)CCC3(C)C [LE-135] | 88.8 | 100 | 101 | 89.7 | 60.1 | 108 | 108 | 91.2 | 102 | 98.5 | 101 | 106 | 100 | 97.8 | 57.2 | 99 | 102 | 98.2 | 87.3 | 78.7 |  | > 10 |  | > 10 | 3.6 | 0 | 2.5 | 1.7 | 85.1 | 104 | 86.8 | 87.6 | 74 | 2.4
11 | CCCCCCOc1cc2c(cc1N(C)c1ncc(C(=O)O)cn1)C(C)(C)CCC2(C)C [PA-452] |  |  |  |  |  |  |  |  |  |  | 97.7 | 92.8 | 97 | 101 | 103 |  |  |  |  |  |  |  | > 10 |  |  |  | 0 |  |  |  |  |  |  | 
12 | CN1[C@@H]2C[C@@H](OC(=O)[C@H](CO)c3ccccc3)C[C@H]1[C@@H]1O[C@@H]12 [SCOPOLAMINE HYDROBROMIDE] |  |  |  |  |  | 96.6 | 99.1 | 91.6 | 101 | 105 | 98 | 98.7 | 99.3 | 95.9 | 96.4 | 94.2 | 99 | 94.4 | 97.2 | 115 |  | > 10 | > 10 | > 10 |  | 0 | 0 | 0 |  |  |  |  |  | 
13 | Cc1cc(Nc2cc(C)c(C#N)c(N[C@@H](C)CCCC(C)(C)O)n2)n[nH]1 [TC-A-2317] | 103 | 102 | 94 | 77.6 | 25.3 | 98 | 89.4 | 84.7 | 77.2 | 40.8 | 106 | 98.2 | 96.9 | 68.8 | 7.2 | 105 | 104 | 96.4 | 75.7 | 22 | 1.47 | 0.799 | 1.33 | 1.4 | 7.2 | 6.7 | 9.4 | 7.8 | 110 | 103 | 93.2 | 62.8 | 54.3 | 7.5
14 | C=CCNc1nc(NCC=C)nc(N2CCN(C(c3ccc(F)cc3)c3ccc(F)cc3)CC2)n1 [almitrine] | 91.3 | 79.4 | 102 | 88.2 | 87.8 | 111 | 96.2 | 96.5 | 92 | 98.2 | 102 | 96.1 | 99.4 | 94.6 | 97.9 | 91.7 | 107 | 89.2 | 95.4 | 91.2 | > 10 | > 10 | > 10 | > 10 | 0.6 | 0 | 0 | 0.4 | 98.8 | 92.6 | 80.9 | 77.9 | 61 | 6.1
15 | CCC(C)(C)c1ccc(CC(C)CN2C[C@@H](C)O[C@@H](C)C2)cc1 (stereo partly drawn) [amorolfine] | 86 | 114 | 91.8 | 84.8 | 76 | 93.8 | 109 | 92.9 | 100 | 94.7 |  |  |  |  |  |  |  |  |  |  | > 10 | > 10 |  |  | 2.5 | 0 |  |  |  |  |  |  |  | 
16 | COC(=O)C1=CCCN(C)C1 [arecoline] |  |  |  |  |  |  |  |  |  |  |  |  |  |  |  |  |  |  |  |  |  |  |  |  |  | 0.6 | 0 |  |  |  |  |  |  | 0
17 | COC(=O)N[C@H](C(=O)N[C@@H](Cc1ccccc1)[C@@H](O)CN(Cc1ccc(-c2ccccn2)cc1)NC(=O)[C@@H](NC(=O)OC)C(C)(C)C)C(C)(C)C [atazanavir] | 90.5 | 112 | 92.9 | 84.8 | 80.1 | 99.3 | 99.7 | 91.4 | 91 | 97.1 | 111 | 97.1 | 102 | 94 | 99.1 | 96.3 | 102 | 90.2 | 99.6 | 112 | > 10 | > 10 | > 10 | > 10 | 2.3 | 0 | 0 | 0 |  |  |  |  |  | 
